Measured values from patent publication US11123314B2 (NATIONAL CANCER CENTER, priority 2017, dated 2021).

Experiments:
[1] = system: pancreatic cancer cell lines Miapaca-2, Panc-1, Aspc-1, SNU-410, SNU-324, Bxpc-3; assay: SRB assay, inhibitory effect of gossypol or phenformin alone on growth of pancreatic cancer cells; format: cell-based; conditions: for inhibitory effect on cell proliferation: 48 hours after treatment with the drug, applied alone; for proliferation of the cancer cells: gossypol or phenformin added alone to each type of the pancreatic cancer cells, SRB assay
Procedure: (§3) Specifically, each type of various pancreatic cancer cell lines, Miapaca-2, Panc-1, Aspc-1, SNU-410, SNU-324, and Bxpc-3 cells, was cultured, during which each type of cells was inoculated into a 96-well plate at a density of 5,000 to 20,000 cells/well depending on an amplification period of culture time. After inoculation, gossypol or phenformin was added to each well and incubated in a CO2 incubator for 24 hours. Then, the cells were fixed by adding 50% (w/v) cooled trichloroacetic acid (TCA) to each well so as to become a final concentration of 10%. The supernatant other than the fixed cells was removed and the plate was washed about five times with tap water and then air dried. After drying, 0.4% (w/v) sulforhodamine B buffer solution containing 1% acetic acid was added to each well, and the plate was left to stand at room temperature for 10 minutes so that the cells were stained. After staining the cells, the plate was washed 5 times with 1% acetic acid to remove unstained dye, and then air dried. The stained dye was immobilized with 10 mM trizma base, and then absorbance was measured at 515 nm using a plate reader.

[2] = system: normal epithelial cell line IMR90; assay: Annexin V-FITC/PI apoptosis detection by flow cytometry in normal cells; conditions: gossypol 10 μM, phenformin 100 μM, alone or mixed; 24, 48 and 72 hours
Procedure: First, the normal epithelial cell line IMR90 was cultured. Then, the cultured cells were treated with a single drug of gossypol 10 μM or phenformin 100 μM, or a mixed drug obtained by mixing them, and culture was performed for 24, 48, and 72 hours in total. The medium was removed from the cultured cells, and the cultured cells were washed twice with cold PBS. Centrifugation was performed at 1,400 rpm for 3 minutes, and then a binding buffer solution was added thereto at a concentration of 1×10^6 cells/mL. […] of the buffer solution was transferred to a 5-mL culture tube, and 5 μl of each of Annexin V-FITC and propidium iodide (PI) was added thereto. The tube was slowly vortexed to perform mixing, and then incubated for 15 minutes in a dark room at room temperature. After the incubation, a binding buffer solution (400 μl) was added thereto and a level of increase in cell death was checked by flow cytometry.

[3] = system: Miapaca2, Panc-1, or Aspc-1 cells; assay: Intracellular ATP level (ATP Colorimetric/Fluorometric Analysis Kit); format: cell-based; conditions: gossypol 5 μM, phenformin 500 μM, alone or mixed; compared with control group with no drug treatment
Procedure: Then, an intracellular ATP level was checked with the ATP Colorimetric/Fluorometric Analysis Kit (BioVision, Milpitas, Calif., USA) according to the protocol provided by the manufacturer. The cultured cells were divided into 1×10^6 cells and 100 μl of ATP assay buffer was added thereto to dissolve the cells. Then, centrifugation was performed at 15,000×g for 2 minutes at 4° C., to separate only the supernatant. 2 to 50 μl of the separated supernatant was transferred to a 96-well plate, and then an ATP assay buffer was added to a final volume of 50 μl per well. Thereafter, an ATP reaction mixture containing 44 μl of ATP assay buffer, 2 μl of ATP probe, 2 μl of ATP converter, and 2 μl of developer mixture was added to the 96-well plate at 50 μl per well and mixing was performed.

[4] = system: Miapaca2 pancreatic cancer cell line; assay: Pancreatic cancer mouse model (xenograft), tumor volume and weight; format: in vivo, Balb/c-nu mice; conditions: gossypol 40 mg/kg, phenformin 100 mg/kg, oral once a day, alone or combined; compared with solvent control
Procedure: (§1) First, 6- to 8-week-old Balb/c-nu mice (Central Lab. Animal, Highland Heights, Ky., USA) were prepared to make a pancreatic cancer mouse model. In addition, Miapaca2 pancreatic cancer cell line was cultured at 5.0×10^6 cells, and subcutaneously injected into the prepared mice with a 1-ml syringe. The mice were bred for 2 weeks, and divided into four groups in total, with each group containing 6 mice. The four groups were used as a solvent control group (10% DMSO, 40% PEG, 50% PBS), a group in which 40 mg/kg/100 μl of gossypol is administered alone, a group in which 100 mg/kg/100 μl of phenformin is administered alone, and a group in which gossypol+phenformin are administered in combination, respectively. To each mouse group was orally administered once a day the solvent or the drug, and the mice were bred in the same environment for a total of 61 days.
(§2) While breeding the mice, body weights and tumor sizes in each mouse group were checked every 3 days and averaged. A size of the initial tumor after injection of pancreatic cancer cells was determined using a caliper. A tumor volume was calculated using the following Equation 1.

[5] = system: Miapaca2, Panc-1, or Aspc-1 cells; conditions: applied alone at low drug concentration (gossypol 5 or 10 μM; phenformin 100 or 500 μM)
Procedure: as §3
Specifically, Miapaca2, Panc-1, or Aspc-1 cells were cultured. Each type of the cultured cells was treated with a mixed drug obtained by mixing gossypol 5 μM and phenformin 100 μM, or gossypol 10 μM and phenformin 500 μM, and cultured in the same manner.

[6] = Pancreatic cancer mouse model, body weight; conditions: oral once a day, 61 days; compared among experimental groups
Procedure: as §1, §2

[7] = system: Miapaca2, Panc-1, CAPAN1, CAPAN2, ASPC-1, SNU-213, SNU-324, or BXPC-3 cells; assay: SRB assay, combined treatment with gossypol, phenformin and anti-cancer agent (triple combination); format: cell-based; conditions: 48 hours; compared with group given gossypol or phenformin alone; gossypol 2.5 or 5 μM, phenformin 100 μM, irinotecan 1 μM
Procedure: Specifically, Miapaca2, Panc-1, CAPAN1, CAPAN2, ASPC-1, SNU-213, SNU-324, or BXPC-3 cells were cultured. Each type of the cultured cells was treated with gossypol, phenformin, or irinotecan alone, or with a mixed drug thereof. […] As a control group, an untreated group with no drug treatment was used, and a relative cell proliferation level in each drug-treated group was expressed and calculated as a percentage as compared with the control group.

Row | Structure (SMILES) | inhibitory effect on cell proliferation [1] | proliferation of the cancer cells [1] | cell death over time in IMR90 normal cells [2] | intracellular ATP level [3] | level of increase in tumor volume [4] | inhibition of cell growth [5] | body weights [6] | proliferation level in pancreatic cancer cells [7]
1 | [H]/N=C(/N)N/C(=N/[H])NCCc1ccccc1 [phenformin] | complete inhibitory effect on cell proliferation | significantly inhibited | significant increase in cell death is not exhibited | decreased | somewhat decreased | significant inhibition of cell growth was not exhibited |  | 
2 | Cc1cc2c(C(C)C)c(O)c(O)c(C=O)c2c(O)c1-c1c(C)cc2c(C(C)C)c(O)c(O)c(C=O)c2c1O [gossypol] | complete inhibitory effect on cell proliferation | significantly inhibited | significant increase in cell death is not exhibited | decreased | somewhat decreased | significant inhibition of cell growth was not exhibited | not significantly different | 
3 | CCc1c2c(nc3ccc(OC(=O)N4CCC(N5CCCCC5)CC4)cc13)-c1cc3c(c(=O)n1C2)COC(=O)[C@]3(O)CC [irinotecan] |  |  |  |  |  |  |  | significantly decreased
